Assay results published in PubChem BioAssay AID1996.
Converted amounts (≈) assume the structure as drawn.

Settings: buffer; pH 7.4; 200.0 µM

| Compound | solubility kinetic |
| --- | --- |
| O=C(Nc1ccncc1)C1CC(=O)N(c2ccc(F)cc2)C1 (stereo not drawn) | 39.3 µg/mL (≈ 131 µM) |
| CCc1c(C)sc(NC(=O)c2ccco2)c1C#N | 17 µg/mL (≈ 65.3 µM) |
| COc1ccc(C(=O)COc2ccccc2C#N)cc1 | 3.6 µg/mL (≈ 13.5 µM) |
| O=Cc1cn(-c2ccccc2)nc1-c1ccncc1 | > 37.4 µg/mL |
| NS(=O)(=O)c1ccc(CNC(=O)Cc2ccsc2)cc1 | > 46.6 µg/mL |
| O=c1[nH]c(=S)n(C2CC2)c(O)c1C=Nc1ccc2c(c1)OCO2 | 1.3 µg/mL (≈ 3.92 µM) |
| CNC(=O)c1c(O)c2cccc3c2n(c1=O)CCC3 | 2.6 µg/mL (≈ 10.1 µM) |
| Cc1ccc2[nH]c(C)c(CCNC(=O)NC3CCCCC3)c2c1 | 1 µg/mL (≈ 3.19 µM) |
| Cc1ccc(Br)cc1S(=O)(=O)Nc1cccnc1 | > 49.1 µg/mL |
| COc1ccc(NC(=O)CN(C)C(=O)C2=COCCO2)cc1 | > 45.9 µg/mL |
| CCCCN1C(=O)C(=O)N(CC(=O)Nc2ccccc2C(C)=O)C1=O | > 51.8 µg/mL |
| Cc1nc(NC(=O)COC(=O)C2CC3CCCC(C2)C3=O)c(Cl)cc1Cl (stereo not drawn) | > 59.9 µg/mL |
| O=C(CNC(=O)[C@@H]1Cc2ccccc2CN1)NCc1ccco1 | > 47 µg/mL |
| CC(C)(C)C(=O)NC(=S)N1CCc2ccccc21 | 31 µg/mL (≈ 118 µM) |
| COC(=O)C(N)Cc1ccc(OC)c([N+](=O)[O-])c1.Cl (stereo not drawn) | > 43.6 µg/mL |
| Cc1ccc(OCC(=O)Oc2ccccc2[N+](=O)[O-])cc1 | 17.4 µg/mL (≈ 60.6 µM) |
| Cc1cc(C(=O)N2CCc3ccccc3C2)c(C)o1 | > 38.3 µg/mL |
| CCN1CCc2c(OCC(=O)N3CCC(C)CC3)cccc2C1=O | 46.2 µg/mL (≈ 140 µM) |
| CCOC(=O)c1c(O)c2cccc3c2n(c1=O)CC3 | > 38.9 µg/mL |
| O=[N+]([O-])c1ccccc1O[C@@H]1O[C@H](CO)[C@H](O)[C@H](O)[C@H]1O | > 45.2 µg/mL |

| Compound | solubility kinetic |
| --- | --- |
| C[C@@H]1NC(=O)N(c2ccc(F)cc2)C1=O | 31.1 µg/mL (≈ 149 µM) |
| CC(=O)Nc1ccc(NC(=O)C(C)OC(=O)CC23CC4CC(CC(Br)(C4)C2)C3)cc1 (stereo not drawn) | > 71.6 µg/mL |
| CC(C)(C)N1CC(C(=O)O)CC1=O (stereo not drawn) | > 27.8 µg/mL |
| O=C(c1cccc(O)c1)N1CCN(C(=O)C2CC2)CC1 | > 41.1 µg/mL |
| Cn1c(SCC(=O)NC2CC2)nnc1-c1cccs1 | > 44.2 µg/mL |
| O[C@@H]1CN(Cc2ccccc2Cl)CC[C@H]1N1CCOCC1 | 39.9 µg/mL (≈ 128 µM) |
| Cc1ccc(-c2cc(C(=O)Nc3cc(C)ccc3O)no2)cc1 | < 0.3 µg/mL |
| CC(=O)N1CCc2c(sc(NC(=O)Cc3ccc(F)cc3)c2C#N)C1 | < 0.3 µg/mL |
| O=C(CN1CCc2ccccc2C1)Nc1ccc(OC(F)(F)F)cc1 | 0.9 µg/mL (≈ 2.57 µM) |
| CC(NC(=O)c1cccc(S(=O)(=O)N(C)c2ccccc2)c1)c1cccnc1 (stereo not drawn) | > 59.3 µg/mL |
| Cc1ccc2nc(Cl)c(C#N)cc2c1 | 2.2 µg/mL (≈ 10.9 µM) |
| CCCN(Cc1ccccc1)C(=S)Nc1ccc(OCC)cc1 | 17.9 µg/mL (≈ 54.5 µM) |
| COc1ccc(Cl)cc1C(=O)NCCCn1ccnc1 | > 44.1 µg/mL |
| Cl.Nc1ncnc2sc3c(c12)CCNC3 | > 36.4 µg/mL |
| CCCN(CC(=O)Nc1ccccc1OC)C(=O)Cc1ccccc1F | 38.9 µg/mL (≈ 109 µM) |
| Cc1ccc(/C(O)=C/c2nc3cc(C)ccc3oc2=O)cc1 | 12 µg/mL (≈ 40.9 µM) |
| CC(N=C1NS(=O)(=O)c2ccccc21)C(=O)NCc1ccc(F)cc1 (stereo not drawn) | > 54.2 µg/mL |
| COC(=O)c1ccc(COC(=O)C2CCN(S(=O)(=O)c3ccccc3C(=O)OC)CC2)cc1 | 11 µg/mL (≈ 23.1 µM) |
| O=C(CSc1ncnc2ccccc12)NC1CCS(=O)(=O)C1 (stereo not drawn) | > 50.6 µg/mL |
| C=CCSc1nc2c(c(=O)[nH]c(=O)n2C)n1Cc1ccccc1 | 3.9 µg/mL (≈ 11.9 µM) |

| Compound | solubility kinetic |
| --- | --- |
| CCN1C(=O)c2ccccc2Sc2ccc(C(=O)NC(C)C)cc21 | 47.9 µg/mL (≈ 141 µM) |
| CCOc1cccc(C(=O)Nc2ccc3ccccc3c2)c1 | < 0.6 µg/mL |
| Cc1ccc(NC(=O)c2cc(-c3ccc(F)cc3)on2)cc1C | 0.4 µg/mL (≈ 1.29 µM) |
| CCOC(=O)C1=C(C)NC(C)=C(C(=O)OCC)C1C(=O)OCC(=O)NCc1ccccc1OC | > 71.2 µg/mL |
| O=C(COc1ccc(F)cc1)N1CCCc2ccccc21 | 33.6 µg/mL (≈ 118 µM) |
| CC(C)(C)Nc1nc(Cl)nc(NCCN2CCOCC2)n1 | 46.1 µg/mL (≈ 146 µM) |
| O=C(NC(=S)Nc1ccc2oc(=O)ccc2c1)c1ccccc1F | 1.4 µg/mL (≈ 4.09 µM) |
| CCCC(C(=O)O)n1c(O)c(C=C2N=c3ccccc3=N2)sc1=S (stereo not drawn) | > 54.2 µg/mL |
| O=C(CNC1CCCCC1)Nc1cccc(C(F)(F)F)c1 | > 45 µg/mL |
| COc1ccccc1CCNC(=O)Cn1c(=O)oc2ccccc21 | > 49 µg/mL |
| O=S(=O)(c1ccc(Cl)nc1)N1CCCC1 | > 37 µg/mL |
| Cc1cc2oc(C(=O)N3CCN(Cc4ccccc4)CC3)c(C)c2cc1C | 3.7 µg/mL (≈ 10.2 µM) |
| COc1ccc(CNCc2ccncc2)cc1OC.Cl | > 44.2 µg/mL |
| CC(C)CC(NC(N)=O)C(=O)NCCc1ccc(Cl)cc1 (stereo not drawn) | > 46.8 µg/mL |
| CC(CN1CCCC1)OC(=O)c1ccccc1Cl.Cl (stereo not drawn) | > 45.6 µg/mL |
| Cn1cc([N+](=O)[O-])c(C(=O)N/N=C/c2ccncc2)n1 | > 41.1 µg/mL |
| O=C(NCc1ccco1)C1CC(O)CN1C(=O)Nc1ccccc1 (stereo not drawn) | > 49.4 µg/mL |
| Cc1cccc(Nc2nnc(SCC(=O)NCC3CCCO3)s2)c1C (stereo not drawn) | > 56.8 µg/mL |
